The text below walks through data of publication PMC8951328, “New Metabolites from the Marine Sponge Scopalina hapalia Collected in Mayotte Lagoon” (Marine Drugs, 2022).

For orientation: IC50 means the concentration at which inhibition is half-maximal. Lower therefore signals greater potency in that assay.

The target of the test is T1, yeast proteasome (Saccharomyces cerevisiae, UniProt P30656).
T1 construct: gene PRE2; yeast proteasome (TUM Groll group); with other subunits of the yeast proteasome
T1 sequence (P30656 76-287): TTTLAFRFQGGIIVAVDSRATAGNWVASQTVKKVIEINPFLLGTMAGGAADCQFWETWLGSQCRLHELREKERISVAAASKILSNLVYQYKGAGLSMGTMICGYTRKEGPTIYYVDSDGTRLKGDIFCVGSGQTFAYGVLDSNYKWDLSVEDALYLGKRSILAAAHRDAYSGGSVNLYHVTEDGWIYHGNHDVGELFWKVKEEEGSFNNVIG
In words: fluorescence intensity assay with Suc-Leu-Leu-Val-Tyr-AMC substrate. It is filed as biochemical.

In the case of `COc1ccc(C[C@H](NC(=O)[C@H](C)NC(=O)CN2CCOCC2)C(=O)N[C@@H](Cc2ccccc2)C(=O)[C@@]2(C)CO2)cc1` [ONX-0914], inhibition was half-maximal at 0.0366 nM (IC50).
